According to PubChem BioAssay AID1159560 (GlaxoSmithKline (GSK), 2015):
The source made the active and inactive calls. No rule for the calls is given here.

tested on: Leishmania donovani growth inhibition; experiment: Leishmania donovani growth inhibition (AID 1159560);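 also: parasites exposed to compound for 72 h before the viability read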

| Structure (SMILES) | IC50 |
| --- | --- |
| O=C(Nc1nc(-c2ccc(S(=O)(=O)N3CCOCC3)cc2)cs1)c1ccc([N+](=O)[O-])cc1 | > 50 µM (inactive) |
| Cc1cc(Nc2cc(C3CC3)[nH]n2)nc(N2CCCC2)n1 | 0.79 µM |
| O=C(CN(Cc1ccccn1)Cc1ccccn1)NCc1csc(-c2cccs2)n1 | 13 µM |
| Cc1ccc2nc(N(Cc3cccnc3)C(=O)CCc3ccccc3)sc2c1 | 25 µM |
| CN(C)S(=O)(=O)c1cccc(C(=O)Nc2nc(-c3ccccn3)cs2)c1 | 1.3 µM |
| Cc1[nH]nc2c1C(c1ccc(OCc3ccccc3F)cc1)SCC(=O)N2 (stereo unspecified) | 40 µM |
| COc1ccc(C(=O)Nc2cc(C(F)(F)F)ccc2N2CCOCC2)c(OC)c1 | 5 µM |
| CCn1c(-c2nonc2N)nc2c([C@@H](C)O)ncc(O[C@H](CN)c3ccccc3)c21 | 20 µM |
| N#Cc1ccc(S(=O)(=O)N2CCN(Cc3cccc(-c4ccncc4)c3)CC2)cc1 | > 50 µM (inactive) |
| Cc1nc2c(-c3nc(-c4ccc(N)cc4)n[nH]3)cccn2c1C | 3.2 µM |
| O=C(Nc1ccc(C(F)(F)F)cc1)NC1(C(=O)NCc2ccco2)CCCCC1 | 40 µM |
| N#Cc1cccc(CN2CCC(c3nc(-c4ccc(C(F)(F)F)nc4)no3)CC2)c1 | 13 µM |
| CCN(CC)S(=O)(=O)c1ccc(Cn2nc(C(=O)Nc3ccncn3)c3ccccc32)cc1 | > 50 µM (inactive) |
| N#CN1CC[C@@H](NC(=O)Nc2ccccc2Oc2ccccc2)C1 | 3.2 µM |
| Cc1ccc(CNC2CCN(C[C@@H]3Cn4c(=O)ccc5ccc(=O)n3c54)CC2)cc1F | > 50 µM (inactive) |
| NC(=O)c1ccc(-c2cccc(OCCN3CCN(C4CCCCC4)CC3)c2)cc1 | > 50 µM (inactive) |
| CC(C)Nc1nc(Cl)nc2ccccc12 | 20 µM |
| COc1ccc(-c2cc(C)no2)cc1S(=O)(=O)Nc1ccc(C)c(C)c1 | 7.9 µM |
| Cc1cc(N(C)C)nc(Nc2ccccc2C)n1 | > 50 µM (inactive) |
| O=C(NCCc1ccn(-c2ccccc2)n1)C1CCCCC1 | > 50 µM (inactive) |
| Cc1sc(C)c(C(F)(F)F)c1CNCCCNc1cc(=O)c2ccccc2[nH]1 | > 50 µM (inactive) |
| Cc1cc2nc(CN(C)Cc3ncccc3C)[nH]c2cc1C | 5 µM |

| Structure (SMILES) | IC50 |
| --- | --- |
| O=C(COc1nn(-c2ccccc2)c2ncccc12)NCc1ccccc1 | 0.4 µM |
| O=C(NCC1CCCCC1)c1cc(=O)c2ccccc2o1 | 5 µM |
| O=[N+]([O-])c1cccc(Nc2cncc(-c3ccccc3CO)c2)c1 | 40 µM |
| COc1ccc(CN2C(=O)C(O)(CC(=O)c3ccncc3)c3cc(Br)ccc32)cc1OC (stereo unspecified) | 40 µM |
| CC(Cn1ccnc1)NC(=O)C1CC1c1cccc(Cl)c1Cl (stereo unspecified) | 16 µM |
| CNc1cc(C)nc(C2CN(C(=O)c3n[nH]c4ccccc34)CCO2)c1 (stereo unspecified) | > 50 µM (inactive) |
| Nc1cc(-c2ccc3ncnc(N4CCOCC4)c3c2)cnc1N | 4 µM |
| CC(C)(C)C(O)(CCc1ccc(Cl)cc1)Cn1cncn1 (stereo unspecified) | 3.2 µM |
| CNc1cncc(C2CCCN2C(=O)Cc2ccc3ccccc3c2)n1 (stereo unspecified) | > 50 µM (inactive) |
| O=C(Nc1ccc(S(=O)(=O)N2CCCC2)cc1)c1ccc([N+](=O)[O-])s1 | 7.9 µM |
| COCc1cnc2c(c1SCc1c(F)cccc1Cl)c(=O)n(C)c(=O)n2C | 4 µM |
| O=c1cc(NCCCNCc2cc(C(F)(F)F)cs2)[nH]c2ccccc12 | > 50 µM (inactive) |
| O=C(NCCc1cccnc1)c1ccc(-c2ccccc2F)o1 | 20 µM |
| Cc1nn(-c2ccccc2)nc1CNC(=O)CN(Cc1ccccn1)Cc1ccccn1 | 7.9 µM |
| Cc1cccnc1CN1CCN(CCCOc2ccc(-c3ccc(C(N)=O)cc3)cc2)CC1 | > 50 µM (inactive) |
| N#Cc1cc(N2CCCC2=O)ccc1Sc1ccccc1CO | > 50 µM (inactive) |
| Cc1cccc(Nc2nc(-c3ccccn3)cs2)n1 | 4 µM |
| COc1ccc(-c2csc(NC(=O)c3ccc([N+](=O)[O-])s3)n2)cc1OC | 1 µM |
| NS(=O)(=O)c1ccc(Nc2nccc(-c3cnn4ncccc34)n2)cc1 | 0.79 µM |
| CC1(Oc2cncc(Cl)c2)CCN(Cc2cc3ccccc3[nH]2)C1 (stereo unspecified) | > 50 µM (inactive) |
| CC(=O)Nc1ccc(CN2CCC(N3CC(c4ccccc4)(c4ccccc4)OCC3=O)CC2)cc1 | 0.5 µM |
| CC1(C)CCC(=Cc2ccc(Cl)cc2)CC1(O)Cn1ccnc1 (stereo unspecified) | 2.5 µM |

| Structure (SMILES) | IC50 |
| --- | --- |
| Cc1cc(-c2cccc3ccccc23)nc2nc(N)nc(N)c12 | 2 µM |
| Cc1ccccc1NS(=O)(=O)c1ccc2[nH]cc(C(=O)NC3CCCCC3)c(=O)c2c1 | > 50 µM (inactive) |
| O=C(Cc1ccc2c(c1)CCC2)Nc1n[nH]c(-c2ccccn2)n1 | 7.9 µM |
| NC(=O)c1cc(F)ccc1Nc1nc(NC2CCC(O)CC2)ncc1Br (stereo unspecified) | 1.6 µM |
| COc1cnc2ccc(=O)n(CCN3CCC(NC(=O)c4ccc(Cl)cc4)CC3)c2c1 | 2 µM |
| C[C@@H](Oc1cc(-n2cnc3cc(N)ccc32)sc1C(N)=O)c1ccccc1Cl | 3.2 µM |
| C[C@@H](Oc1cc(-n2cnc3ccc(CC(O)CO)cc32)sc1C(N)=O)c1ccccc1Cl (stereo partly specified) | 25 µM |
| CC(=O)Nc1ccc(-c2cnc(N)c(-c3nc4ccc(F)cc4[nH]3)c2)cc1 | 6.3 µM |
| Nc1ncnc2c1ncn2[C@@H]1O[C@H](CO)C[C@H]1O | > 50 µM (inactive) |
| CCN(CC)S(=O)(=O)c1ccc(OC)c(NC(=O)c2ccc([N+](=O)[O-])s2)c1 | > 50 µM (inactive) |
| CN(C)Cc1cccc(Nc2nccc(-c3ccc(NCCN)c(C#N)c3)n2)c1 | 2.5 µM |
| COc1ccc(C(C)N(C)c2ncc3c(N)nc(N)nc3n2)cc1F (stereo unspecified) | 4 µM |
| CCC(=O)Nc1ccc(-c2nc3ccc(Cl)cc3[nH]2)cc1 | > 50 µM (inactive) |
| Cc1ccc2c(c1)SC(C(=O)Nc1n[nH]c(-c3ccccn3)n1)C2 (stereo unspecified) | 6.3 µM |
| Cc1cc(Br)sc1CNCCCNc1cc(=O)c2ccccc2[nH]1 | > 50 µM (inactive) |
| O=C(NCC(c1cccnc1)N1CCc2ccccc2C1)C(=O)Nc1cccc(Cl)c1 (stereo unspecified) | 1.3 µM |
| COc1cccc(NS(=O)(=O)c2ccc3[nH]cc(C(=O)NCCC(C)C)c(=O)c3c2)c1 | > 50 µM (inactive) |
| O=C(c1ccc(OCCCc2cnc[nH]2)cc1)C1CC1 | > 50 µM (inactive) |
| COc1ccc(Nc2nc(NC3CCC(O)CC3)ncc2Br)c(C(N)=O)c1 (stereo unspecified) | 3.2 µM |
| COc1ccc(C2C3CCCCC3(O)CCN2CC(=O)Nc2ccc(Cl)cc2Cl)cc1 (stereo unspecified) | 1.6 µM |
| CS(=O)(=O)c1cccc(CNC(=O)c2cncc(N3CCN(c4ccc(F)cc4)CC3)c2)c1 | > 50 µM (inactive) |
| CNC(=O)C1Cc2ccccc2N1C(=O)Cc1ccc(OC)cc1 (stereo unspecified) | > 50 µM (inactive) |

| Structure (SMILES) | IC50 |
| --- | --- |
| Nc1nc(-c2ccccn2)nc(-n2nc(-c3cccc(C(F)(F)F)c3)cc2N)n1 | 10 µM |
| FC(F)(F)c1cc(C2CCCN(Cc3c[nH]c4ccccc34)C2)nc2ncnn12 (stereo unspecified) | > 50 µM (inactive) |
| Cn1nc([N+](=O)[O-])nc1N1CCCCC1 | > 50 µM (inactive) |
| C[C@@H](Oc1cc(-n2cnc3ccc(C(O)CO)cc32)sc1C(N)=O)c1ccccc1C(F)(F)F (stereo partly specified) | 16 µM |
| CCCCn1nnnc1CSc1nc(C)cc(C)c1C#N | 1.3 µM |
| Cc1ccc(NC(=O)c2ccnc(N3CCCC3)c2)cc1-c1cc(C(N)=O)ccc1C | 25 µM |
| O=[N+]([O-])c1ccc(-c2nnn(-c3cccnc3)n2)o1 | 16 µM |
| Cc1cccc(NS(=O)(=O)c2cnc3sc(C)cn3c2=O)c1 | > 50 µM (inactive) |
| O=C(NC1C(=O)N(c2ccccc2)C1c1cccnc1)c1ccc(Cl)s1 (stereo unspecified) | 1 µM |
| O=C(CSc1ccc(F)cc1)N[C@@H](Cc1cnc[nH]1)C(=O)NCCc1ccccc1 | > 50 µM (inactive) |
| O=C(CN1CCN(S(=O)(=O)c2cccc([N+](=O)[O-])c2)CC1)Nc1ccc(Oc2ccccc2)cc1 | 4 µM |
| Cc1cc(C)n(-c2nc(NC(C)(C)C)nc(N3CCOCC3)n2)n1 | 6.3 µM |
| OC1CCC(Nc2nccc(-c3sc(C4CCOCC4)nc3-c3ccc(F)c(F)c3)n2)CC1 (stereo unspecified) | 3.2 µM |
| COc1ccc(C2CC(c3ccc(NS(C)(=O)=O)cc3)=NN2C(=O)c2cccs2)cc1OC (stereo unspecified) | 13 µM |
| Cc1cc(NC(=O)C2CCCCC2)n(-c2nc3c(c(=O)[nH]2)CCC3)n1 | 0.04 µM |
| Cc1nc(-c2ccc3c(c2)OCO3)sc1C(=O)NCc1ccc2c(c1)OCO2 | 2 µM |
| Fc1ccccc1N1C[C@H]2CCN(c3cccnc3)C[C@H]2C1 | 13 µM |
| Cc1nn2c(NCCCO)c3c(nc2c1-c1cccs1)CCC3 | 2 µM |
| O=S(=O)(NCC(c1cccnc1)N1CCN(c2ccccc2F)CC1)c1ccc(F)cc1 (stereo unspecified) | 4 µM |
| COc1cccc(-c2cc(C(F)(F)F)nc(-n3ccc([N+](=O)[O-])n3)n2)c1 | > 50 µM (inactive) |
| CCC(=O)Nc1ccc(C(=O)Nc2ccccc2-c2ccccc2)cc1 | 10 µM |
| O=C(Nc1ccccc1)Nc1nc(-c2ccccn2)cs1 | 1.6 µM |

| Structure (SMILES) | IC50 |
| --- | --- |
| O=C(CN(Cc1ccccn1)Cc1ccccn1)NC1Cc2ccccc2C1 | 13 µM |
| CC(C)(C)Nc1nc(-c2ccccn2)nc2ccccc12 | 6.3 µM |
| Cc1[nH]nc(Nc2ccnc3[nH]ccc23)c1C | > 50 µM (inactive) |
| O=C(COc1ncnc2cc([N+](=O)[O-])ccc12)NC(=O)NC1CCCCC1 | > 50 µM (inactive) |
| O=C(Cc1ccccc1)Nc1[nH]nc2sc(C(=O)NC3CCCC3)cc12 | 4 µM |
| Cc1ccc(S(=O)(=O)Nc2ccc(CN3CCN(C(=O)c4cccc(C)c4)CC3)cc2)cc1 | 25 µM |
| NC(=O)c1ncc(N[C@@H]2CCCNC2)nc1Nc1cccc(Cl)c1 | 2.5 µM |
| Cc1ccc(NC(=O)C(C)n2nc([N+](=O)[O-])c(Br)c2C)cc1Cl (stereo unspecified) | > 50 µM (inactive) |
| CC(CCc1ccccc1)NC(=O)CN(Cc1ccccn1)Cc1ccccn1 (stereo unspecified) | 7.9 µM |
| Cn1nccc1-c1cc(OC(CN)c2ccccc2)cnc1-c1ccco1 (stereo unspecified) | > 50 µM (inactive) |
| Cc1c(CNC(=O)c2ccc(Cn3cc(Cl)c([N+](=O)[O-])n3)cc2)cnn1C | > 50 µM (inactive) |
| O=C(CCCn1cnc([N+](=O)[O-])n1)Nc1cccc(Cl)c1 | > 50 µM (inactive) |
| N#Cc1ccc(Br)cc1[N+](=O)[O-] | 7.9 µM |
| Cc1ccccc1NS(=O)(=O)c1ccc2[nH]cc(C(=O)NC3CCCC3)c(=O)c2c1 | > 50 µM (inactive) |
| CN(Cc1nc2ccccc2s1)C(=O)C=Cc1cc2ccccc2o1 | 50 µM |
| CCc1c(C)nc(-n2nc(C)cc2NC(=O)COc2ccccc2F)[nH]c1=O | 0.13 µM |
| CN(C)c1ccc(N)cc1CN(CC1CCCO1)S(C)(=O)=O (stereo unspecified) | 4 µM |
| N#Cc1nc(C=Cc2ccccc2)oc1NCc1cccnc1 | 25 µM |
